Test system: caterpillars of the diamondback moth (Plutella xylostella)
Assay: Plutella test
Format: in vivo
Conditions: 100 ppm active compound, cabbage leaves dipped, kill after 7 d
Procedure: To produce a suitable preparation of active compound, 1 part by weight of active compound is mixed with the stated amounts of solvent and emulsifier, and the concentrate is diluted with emulsifier-containing water to the desired concentration.
Cabbage leaves (Brassica oleracea) are treated by being dipped into the preparation of active compound of the desired concentration and are populated with caterpillars of the diamondback moth (Plutella xylostella) while the leaves are still moist.
After the desired period of time, the kill in % is determined. 100% means that all caterpillars have been killed; 0% means that none of the caterpillars have been killed.

Fc1cc(-c2nc3cc(-c4ccccc4)ccc3o2)ccc1C1CCC(c2c(F)cccc2F)=N1 (stereo not shown) [drawing 46]
Efficacy in % after 7 d: 100%
